Measured values: patent US8846633B2, “Method for inhibiting cancer stem cell like properties and chemoradioresistant properties of cancer or tumor cells with microRNA145” (Taipei Veterans General Hospital, priority 2011, dated 2014)

Key:
ALDH1+CD44+ HNC cells [1] = test: tumor initiation of transfected ALDH1+CD44+ HNC cells; assay type: in vivo; settings: ALDH1+CD44+ cells-transplanted grafts in NOD-SCID mice
ALDH1+CD44+ HNC cells [2] = test: HNC-TIC orthotopic xenograft, tumor size; assay type: in vivo, nude mice; settings: intra-tumoral lesion injection; five weeks after treatment; vs pLV or shLuc
Procedure: (§1) We further explored the therapeutic potential of miR145 in immunocompromised mice bearing HNC-TIC xenografted tumors. Nude mice that were orthotopically pre-injected with GFP-labeled ALDH1^+CD44^+ cells in the neck region were treated with miR145-overexpressing lentivirus (pLV-miR-145) and shSOX9+shADAM17 by intra-tumoral lesion injection. […] By monitoring the treated mice for up to 12 weeks, we observed that administration of pLV-miR145 or shSOX9+shADAM17 prolonged animal survival to a greater extent than did the LNA-miR145 treatment (FIG. 10B).

ALDH1+CD44+ HNC cells [3] = test: HNC-TIC orthotopic xenograft, survival; assay type: in vivo, nude mice; settings: monitored up to 12 weeks
Procedure: as §1

HNC cells [4] = test: sphere formation of HNC cells; assay type: cell-based, human; settings: ALDH1+CD44+ cells; data not shown
Description: (§2) To identified the miRNA(s) involved in the regulation of TIC properties in HNC-TICs, we evaluated and compared the miRNA expression profiles in 3 pairs of HNC populations (ALDH1^+ vs. ALDH1^−, CD44^+ vs. CD44^−, and sphere-forming vs. parental) derived from patient specimens. […] To further investigate whether miR145 plays a role in the identity of HNC-TICs, two patient sample-derived HNC cell lines (HNC-1 and HNC-2) and an immortalized HNC cell line (FaDu) were subjected to quantitative RT-PCR analysis to confirm that miR145 levels were low in ALDH1^+/CD44^+ and sphere-forming HNC cells but high in ALDH1^−/CD44^− and parental cells (FIG. 8A, left and middle). To evaluate the role of miR145 on cancer initiation, we knocked down miR145 in ALDH1^−CD44^− cells derived from HNC-1, HNC-2, and FaDu cells using an miRNA SPONGE strategy (FIG. 8A, right), and subjected these cells to functional and molecular analysis. As shown in FIGS. 8B-D, the sphere formation ability and the percentage of ALDH1^+ and CD44^+ cells was all elevated upon miR145 knockdown (Spg-miR145) as compared to the control (Spg-ctrl) cells. […]

HNC cells [5] = test: percentage of ALDH1+ and CD44+ HNC cells; assay type: cell-based, human; settings: data not shown
Description: as §2

HNC cells [6] = test: invasion of HNC cells; assay type: cell-based, human; settings: ALDH1+CD44+ cells; data not shown
Description: as §2

With “shSOX9+shADAM17: lentiviral-based shRNAs for co-knockdown of SOX9 (SEQ ID NO: 28) and ADAM17 (SEQ ID NO: 29) (chain 1 GCGGAGGAAGTCGGTGAAGAA; chain 2 CCTATGTCGATGCTGAACAAA; the letters are possibly those of the target site)” the tumor-initiating property (ALDH1+CD44+ HNC cells [1]) was “effectively inhibited”, the tumor size (ALDH1+CD44+ HNC cells [2]) was “dramatically reduced” and the animal survival (ALDH1+CD44+ HNC cells [3]) was “prolonged”. The sphere-forming ability (HNC cells [4]) was “reduction”, the “percentages of CD44+ and ALDH1+ cells” value (HNC cells [5]) was “reduced” and the invasive capacity (HNC cells [6]) was “reduced”.
